Laboratory results reported in article PMC2360547 (British Journal of Cancer, 2006).
Values joined by “and” are separate entries in the source; they are usually repeats but may differ in a detail not shown here. Equal entries are not always repeated. Where two headings read alike, the source gives them in different places.

What was measured:
[1] = design: method as in Propper et al, 2001; conditions: Phase I trial, oral; ref Propper et al, 2001; cited from earlier work
[2] = Tumour tissue concentrations by HPLC with fluorescence detection; format: in vivo, human; conditions: for Kp at 28 day / concentration at 28 day: human, oral, 10 subjects; for Kp at 28 day: tumour tissue / plasma, 75 mg three times a day; for Kp at 28 day / Tissue/plasma ratios: tumour tissue to plasma; for concentration at 28 day / Tissue concentrations: tumour tissue, about 1 month of 75 mg tid; for concentration at 28 day: 75 mg tid; for Tissue/plasma ratios / Tissue concentrations: individual subjects
Experimental: (§1) Therefore, the tumour tissue was frozen and cut into as small as possible pieces with a scalpel. The pieces were weighed, added to 1 ml of water, vortexed and thereafter treated like plasma. The assay for plasma samples was validated with acceptable calibration curves, within-study variability and total recovery. […] Due to limited availability of tumour tissue, the within-study validation for tumour assay was not performed.

[3] = Plasma concentrations by HPLC with fluorescence detection; format: in vivo, human; conditions: for concentration at 28 day: human, plasma, oral, 75 mg tid, 12 subjects, about 1 month of 75 mg tid; for Plasma concentrations: individual subjects, sampling day 27-30, midostaurin 75 mg tid
Experimental: as §1

PKC isotypes = conditions: metabolites, compared with parent drug; no reference given; read-out: IC50 against PKC isotypes; cited from earlier work
[4] = read-out: Tissue/plasma ratios, maximum
[5] = read-out: Tissue/plasma ratios, mean
[6] = read-out: Tissue/plasma ratios, median
[7] = read-out: Tissue/plasma ratios, minimum
[8] = read-out: Tissue concentrations, maximum
[9] = read-out: Tissue concentrations, mean
[10] = read-out: Tissue concentrations, median
[11] = read-out: Tissue concentrations, minimum
[12] = read-out: Plasma concentrations, maximum
[13] = read-out: Plasma concentrations, mean
[14] = read-out: Plasma concentrations, median
[15] = read-out: Plasma concentrations, minimum

Kp at 28 day [2, 4]	Kp at 28 day [2, 5]	Kp at 28 day [2, 6]	Kp at 28 day [2, 7]	concentration at 28 day [2, 8] [nM]	concentration at 28 day [2, 9] [nM]	concentration at 28 day [2, 10] [nM]	concentration at 28 day [2, 11] [nM]	concentration at 28 day [3, 12] [µM]	concentration at 28 day [3, 13] [µM]	concentration at 28 day [3, 14] [µM]	concentration at 28 day [3, 15] [µM]	Compound	Estimated median elimination t1/2 [1] [days]	Tissue/plasma ratios [2]	Tissue concentrations [2]	Plasma concentrations [3]	IC50 (PKC isotypes) [nM]
0.153	0.085	0.083	0.033	3210	1500	1520	635	22.4	17.3	18.4	10.8	CO[C@@H]1[C@H](N(C)C(=O)c2ccccc2)C[C@H]2O[C@]1(C)n1c3ccccc3c3c4c(c5c6ccccc6n2c5c31)C(=O)NC4O (single isomer, unassigned) [CGP52421 (e2)]	36	0.03 and 0.09 and 0.07 and 0.06 and 0.12 and 0.08 and 0.11 and 0.05 and 0.15	635 nM and 1528 nM and 789 nM and 1031 nM and 2367 nM and 1569 nM and 1503 nM and 776 nM and 1644 nM and 3212 nM	19.151 µM and 16.633 µM and 11.311 µM and 18.383 µM and 19.519 µM and 18.475 µM and 22.448 µM and 13.352 µM and 10.767 µM and 15.869 µM and 20.34 µM and 20.944 µM	–
–	–	0.083	–	–	–	1520	–	–	–	18.4	–	CO[C@@H]1[C@H](N(C)C(=O)c2ccccc2)C[C@H]2O[C@]1(C)n1c3ccccc3c3c4c(c5c6ccccc6n2c5c31)C(=O)N[C@H]4O [CGP52421]	–	–	–	–	50
0.42	0.21	0.2	0.04	2350	990	710	175	10.1	5.36	5.43	2.47	CN(C(=O)c1ccccc1)[C@@H]1C[C@H]2O[C@@](C)([C@@H]1O)n1c3ccccc3c3c4c(c5c6ccccc6n2c5c31)C(=O)NC4 [CGP 62221]	–	0.04 and 0.19 and 0.21 and 0.11 and 0.35 and 0.34 and 0.12 and 0.22 and 0.42	175 nM and 609 nM and 523 nM and 759 nM and 2006 nM and 661 nM and 1022 nM and 651 nM and 1143 nM and 2353 nM	4.66 µM and 3.227 µM and 2.474 µM and 7.205 µM and 5.723 µM and 6.061 µM and 10.132 µM and 2.995 µM and 5.761 µM and 5.28 µM and 5.265 µM and 5.586 µM	120
